Here are results for 2 molecules from PMC11869560, “Anticancer and cancer preventive activities of shogaol and curcumin from Zingiberaceae family plants in KG-1a leukemic stem cells” (BMC Complementary Medicine and Therapies, 2025).

Values after ≈ are worked out from the molar mass of the structure shown. Read-outs that look alike come from different tables or passages of the source.

The subject of assay [1] is KG-1a cells. Put plainly: MTT cytotoxicity assay in KG-1a cells. Format: cell-based, human. To be noted: for IC50 / IC20: Homo sapiens; for Selectivity index (SI): IC50 for normal cells (PBMCs) / IC50 for cancer cells (KG-1a). How it is done:
(§1) MTT (3-(4,5-dimethylthiazol-2-yl)-2,5-diphenyltetrazolium bromide) assay was used to investigate the cytotoxicity of the test samples. KG-1a (1.5 × 10^4 cells/well), K562 (1.0 × 10^4 cells/well), PBMCs (1.0 × 10^5 cells/well), A549 (5.0 × 10^3 cells/well), MCF-7 (5.0 × 10^3 cells/well), and HeLa (5.0 × 10^3 cells/well) were seeded into a 96-well plate and incubated overnight at 37 °C with 5% CO2. […] After that, 5 mg/mL of MTT dye solution (Sigma-Aldrich, MA, USA) was added and incubated for 4 h. The produced formazan crystals were dissolved in 200 µL of DMSO (Sigma-Aldrich, MA, USA); then, the optical density (OD) was measured using an ELISA plate reader (Metertech, Taipei, Taiwan) at 578 nm with a reference wavelength of 630 nm. The percentage of surviving cells was calculated from the absorbance values of the test and control wells using the following Equation. 1 [drawing 1]
(§2) where ODsample is a mean absorbance in test well and ODvehicle control is a mean absorbance in VC well. The average percentage of surviving cells at each concentration obtained from triplicate experiments was plotted as a dose-response curve. Inhibitory concentration values at 50% growth (IC50 value) were defined as the lowest concentration of the test sample that inhibited cell growth by 50% compared to the untreated control.
(§3) To calculate IC50 values, a dose-response curve was fitted using non-linear regression analysis, as described in the GraphPad Prism guidelines (https://www.graphpad.com/support/faq/how-to-determine-an-icsub50sub/). The IC50 value was obtained by determining the point at which the curve intersected 50% growth inhibition. Non-linear regression graphs of the dose-response curve for each compound are provided in the supplementary data file (Figs. S1–S8).
where IC50 N is IC50 for normal cells and IC50 C is IC50 for cancer cells which were treated with the same compounds in both cells.

For a further assay, the system named is PBMCs. Put plainly: MTT cytotoxicity assay in PBMCs. The class given is cell-based, human. The settings on record: Homo sapiens, PBMC. How it is done:
PBMCs were isolated from blood samples using the Ficoll-Hypaque technique. Initially, 10–20 mL of blood was collected in a heparin tube at a ratio of 1:500 from a minimum of three healthy volunteers. Subsequently, the blood samples were diluted with Phosphate buffer saline (PBS), pH 7.4, at a ratio of 1:1 to reduce viscosity. Histopaque-1077 (Sigma-Aldrich, MA, USA) was then underlaid the diluted sample and centrifuged at 400×g for 30 min. The resulting PBMCs were collected, washed with PBS, pH 7.4, and prepared for further experiments.
as §1, §2, §3

A further assay relates to RAW264.7 cells. Put plainly: Cytotoxicity (IC20, cell viability) in RAW264.7 cells. The class given is cell-based. The settings on record: Mus musculus, RAW264.7, 48 h, read-out: IC20 RAW264.7 (inhibitory concentration at 20% growth). How it is done:
MTT (3-(4,5-dimethylthiazol-2-yl)-2,5-diphenyltetrazolium bromide) assay was used to investigate the cytotoxicity of the test samples. […] After that, 5 mg/mL of MTT dye solution (Sigma-Aldrich, MA, USA) was added and incubated for 4 h. The produced formazan crystals were dissolved in 200 μL of DMSO (Sigma-Aldrich, MA, USA); then, the optical density (OD) was measured using an ELISA plate reader ([…], Taiwan) at 578 nm with a reference wavelength of 630 nm. The percentage of surviving cells was calculated from the absorbance values of the test and control wells using the following Equation. 1 [drawing 1] […] Afterward, supernatants were collected, and the levels of TNF-α and NO were measured using the Mouse TNF alpha Uncoated ELISA Kit (InvitrogenTM, ThermoFisher Scientific, MA, USA) and the Total Nitric Oxide Assay Kit (InvitrogenTM, ThermoFisher Scientific, MA, USA), respectively, according to the manufacturer's instructions.

Assay [2] deals with WT1 protein expression in KG-1a cells. The experiment in a line: WT1 protein expression in KG-1a cells by Western blotting. Format: cell-based, human. How it is done:
(§4) KG-1a cells (1.5 × 10^5 cells/mL) were treated with compounds or extracts at different incubation times. Then, the cells were harvested and the whole proteins were extracted using a RIPA buffer (25 mM Tris-base, pH 7.6, 0.1% SDS, 1% Triton X-100, 150 mM NaCl, and 1 mM EDTA). The protein concentration was measured using the Folin-Lowry or Bradford assay. The whole protein lysates (30 µg/lane) were then separated through 7.5% SDS-PAGE under reducing conditions and then transferred to PVDF membranes. The membranes were blocked in 5% skim milk in PBS, pH 7.4 at RT for 2 h, then, target proteins were probed with specific primary antibodies (anti-WT1, anti-CD34, anti-GAPDH, anti-cleaved caspase-3, anti-cleaved PARP, anti-phospho-Akt, anti-phospho-c-Jun, anti-phospho-SAPK/JNK, and anti-YAP/TAZ) indicated in Table S10 which diluted at a ratio of 1:1,000 in PBS, pH 7.4 at RT for 2 h. After incubation, the membranes were rinsed 6 times with 0.1% Tween-20 (Sigma-Aldrich, MA, USA) in PBS, pH 7.4 (PBS-T), each time for 5 min. The reaction was followed by HRP-conjugated secondary antibody at 1:20,000 dilution in PBS, pH 7.4 at RT for 2 h, then, the membranes were rinsed 6 times for 5 min each with PBS-T. The proteins were shown using Immobilon Forte Western HRP substrate (Millipore, MA, USA). Finally, the protein band signal was quantified by using a scan densitometer (Bio-Rad Laboratories, CA, USA).

Assay [3] deals with CD34 protein expression in KG-1a cells. The experiment in a line: CD34 protein expression in KG-1a cells by Western blotting. Format: cell-based, human. The settings on record: IC20 concentrations, 48 h, normalized to GAPDH. How it is done:
as §4

For assay [4], the system named is KG-1a cells. Put plainly: Cell cycle and apoptosis (sub-G1) assay by flow cytometry in KG-1a cells. To be noted: 48 h. The class given is cell-based, human. The protocol:
After treating KG-1a cells with active compounds at various concentrations for 48 h, the cells were pulsed with 10 µM BrdU (Sigma-Aldrich, MA, USA) for 20 min at 37 °C in an incubator with 5% CO2. Subsequently, the cells were harvested, washed with ice-cold PBS, pH 7.4 three times, and then fixed with 70% ethanol in PBS, pH 7.4 at −30 °C. Following fixation, the cells were washed and resuspended in 2 N HCl/0.5% Triton X-100 for 30 min at room temperature (RT). Then, 0.1 M sodium tetraborate decahydrate was added for 2 min at RT to neutralize the acid. Subsequently, the cells were stained with FITC-anti-BrdU antibody for 30 min at RT. After washing, the cells were resuspended in propidium iodide (PI) (Dojindo, Kumamoto, Japan) in PBS, pH 7.4 at a ratio of 1:1,000. The cell cycle phases were detected using a flow cytometer (CytoFLEX S, Beckman Coulter, CA, USA) and analyzed with the CytExpert program (Beckman Coulter, CA, USA).
The flow cytometry data were analyzed to assess both apoptosis and cell cycle distribution. Apoptosis was evaluated by determining the percentage of cells in the sub-G1 phase using the Nicoletti assay. For cell cycle analysis, populations in the G1, S, and G2/M phases were calculated after excluding the sub-G1 population to avoid interference from apoptotic cells, allowing for a clearer assessment of cell cycle arrest in different phases. Data were presented in separate graphs for the sub-G1 population and cell cycle phase distributions.

In assay [5] the test system is KG-1a cells. Put plainly: Cell death analysis by PI staining and flow cytometry in KG-1a cells. Format: cell-based, human. The settings on record: nocodazole 5–120 ng/mL, shogaol 6–9 µg/mL, curcumin various concentrations; time course. The protocol: Additionally, PI staining was used to investigate the cytotoxicity of the active compounds. KG-1a cells after exposure to the active compounds with various concentration were harvested at different incubation times and washed with ice-cold PBS, pH 7.4 for 2 times. Then, the cells were resuspended with PI in PBS, pH 7.4 at a ratio of 1:10,000. The percentage of dead cells was detected by flow cytometry (CytoFLEX S, Beckman Coulter, CA, USA) and analyzed by CytExpert program (Beckman Coulter, CA, USA).
Background: In flow cytometry, cells or beads pass a laser one at a time.

Assay [6] concerns cleaved caspase-3 and PARP in KG-1a cells. The experiment in a line: Cleaved caspase-3 and cleaved PARP in KG-1a cells by Western blotting. Format: cell-based, human. To be noted: IC50 concentrations (curcumin 10 µg/mL, shogaol 3 µg/mL, nocodazole 10 ng/mL), 0–12 h. How it is done:
as §4

On to `COc1cc(/C=C/C(O)=C/C(=O)/C=C/c2ccc(O)cc2)ccc1O` [Demethoxycurcumin, demethoxycurcumin], for which the IC50 in the assay with KG-1a cells [1] (KG-1a, active compounds and drugs, MTT, 48 h, read-out: IC50 KG-1a) stood at 11.3 ± 0.85 µg/mL (≈ 33.3 µM); with KG-1a cells [1] (Table S7, KG-1a, first replicate, read-out: IC50 value R1), 10.3 µg/mL (≈ 30.5 µM); in the assay with KG-1a cells [1] (Table S7, KG-1a, second replicate, read-out: IC50 value R2), 11.6 µg/mL (≈ 34.4 µM); in the assay on KG-1a cells [1] (Table S7, KG-1a, third replicate, read-out: IC50 value R3), 11.9 µg/mL (≈ 35.1 µM); with PBMCs (Table S8, PBMCs, first replicate, read-out: IC50 value R1) it was 14.2 µg/mL (≈ 41.8 µM); in the assay on PBMCs (Table S8, PBMCs, second replicate, read-out: IC50 value R2), 13.6 µg/mL (≈ 40.2 µM). Moreover, the IC50 with PBMCs (Table S8, PBMCs, third replicate, read-out: IC50 value R3) worked out at 13.9 µg/mL (≈ 41 µM); in the assay with PBMCs (active compounds and drugs, MTT, 48 h, read-out: IC50 PBMCs), 13.9 ± 0.28 µg/mL (≈ 41 µM). In addition, the IC20 in the assay with KG-1a cells [1] (KG-1a, incubation for 48 h, read-out: IC20 KG-1a (inhibitory concentration at 20% growth)) was found to be 3.69 ± 0.53 µg/mL (≈ 10.9 µM); in the assay with PBMCs (incubation for 48 h, read-out: IC20 PBMCs (inhibitory concentration at 20% growth)), 7.95 ± 0.26 µg/mL (≈ 23.5 µM); in the assay with RAW264.7 cells it was 5.94 ± 2.02 µg/mL (≈ 17.6 µM). Moreover, the “Selectivity index (SI)” value is on record as 1.23 in the assay on KG-1a cells [1] (48 h) and “greater than 1” in the assay on KG-1a cells [1] (48 h, listed as demethoxycurcumin). Besides, the “decrease of WT1 protein level compared to VC” value in assay [2] (IC20 concentrations, 48 h, normalized to GAPDH) was 33.37 ± 3.87%. The “decrease of CD34 protein level compared to VC” value in assay [3] was determined as 32.79 ± 1.56%.
Take `COC(=O)Nc1nc2ccc(C(=O)c3cccs3)cc2[nH]1` [Nocodazole, nocodazole, reference compound]: in the assay with KG-1a cells [1] (KG-1a, as used for Western blotting, read-out: IC50 concentration in KG-1a cells), the IC50 was 0.01 µg/mL (≈ 0.0332 µM). In the assay on KG-1a cells [1] (KG-1a, as used in the cell cycle assay, read-out: IC20 concentration in KG-1a cells), the IC20 is 0.006 µg/mL (≈ 0.0199 µM). In addition, in assay [2] (IC50 concentration, up to 12 h), the “effect on WT1 expression” value is “failed to reduce WT1 expression even after 12 h of incubation”. The “effect on sub-G1 population compared to VC” value in the assay on KG-1a cells [4] (IC20 concentration (nocodazole 6 ng/mL, curcumin 3 µg/mL, shogaol 0.12 µg/mL)) is recorded as “significantly increased the sub-G1 population”. Besides, in the assay with KG-1a cells [4] (IC20 concentration, sub-G1 excluded), the “increase of proportion of cells in G2/M phase” value is 23.48 ± 1.35%. Also, the “induction of cell death (PI staining)” value in the assay with KG-1a cells [5] is “significant induction of cell death after 24 h of incubation”. The “time to activation of cleaved caspase-3 and PARP” value in assay [6] is “failed to induce the activation of cleaved caspase-3 and PARP even after 12 h of incubation”.
